Earlier results on three compounds are cited in patent publication US20240252403A1, “SKIN CARE COMPOSITION FOR APPLICATION TO SKIN” (COSMED PHARMACEUTICAL CO., LTD., priority 2021, published 2024).

Turning to `N[C@@H](CCC(=O)N[C@@H](CS)C(=O)NCC(=O)O)C(=O)O` [glutathione], the saturation solubility was 13.0 g/100 g.
As to `Cc1ncc(CO)c(CO)c1O.Cl` [pyridoxine hydrochloride], the saturation solubility is reported as 22.0 g/100 g.
In the case of `NCCS(=O)(=O)O` [taurine], the saturation solubility is 7.9 g/100 g.
